From patent US12459951B2, “Compounds that interact with RAS superfamily proteins for treatment of cancers, inflammatory diseases, rasopathies, and fibrotic disease” (SHY Therapeutics, LLC, priority 2022, dated 2025)

How the values were obtained:
[1] = tested on: Akt phosphorylation; assay: Akt Phosphorylation Assay (western blot), Panc-1; type: cell-based, human; settings: at 10 μM, * = activation
Procedure, shortened: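 Phospho-Akt (Ser473) was measured by western blot in lysates of KRas G12D Panc-1 cells exposed to test compound for 6 h at 37 °C, either at 10 μM final with 0.3% DMSO or as serial dilutions for IC50. One format used overnight 0.5% FBS starvation followed by a 15 min pulse of 1.5 ng/ml EGF. The other used cells in 10% FBS with no stimulation.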

[2] = tested on: KRas G12D mutant; assay: Ras GTP Binding Domain Inhibition Assay (Ras Superfamily Assay); settings: 20 μM compound; for KRas G12D mutant + SOS: % inh.: with SOS; for KRas G12D mutant: % inh.: without SOS
Procedure, shortened: (§1)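 Binding of 100 nM fluorescent GTP (Cy3 or Cy5, 45 min, room temperature) was read after washes from plate-captured His-tagged protein. Beforehand, compounds at 20 μM or in dilution series for IC50 sat 3 h on the protein in Tris buffer pH 7.4 or 7.0 with 1% DMSO, Sos GEF optionally added for the last hour.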

[3] = tested on: KRas wild type; assay: as above; settings: 20 μM compound; for KRas wild type + SOS: % inh.: with SOS; for KRas wild type: % inh.: without SOS
Procedure, shortened: as §1

[4] = molecular target: T1, Rac-1 (Homo sapiens, UniProt P63000); assay: as above; settings: read-out: Rac-1: % inh.
T1 construct: made in house
Procedure, shortened: as §1

Compound	KRas G12D mutant + SOS: % inh. [2]	KRas G12D mutant: % inh. [2]	KRas wild type + SOS: % inh. [3]	KRas wild type: % inh. [3]	inhibition at 20 µM [4] [%]	% inh of Akt phosphorylation in Panc-1 [1]
CO[C@H]1C[C@@H](Nc2nc(-c3nccn3C)nn3cc(-c4ccn(C)n4)c(C)c23)C1 [Compound 131, N-((1s,3s)-3-Methoxycyclobutyl)-5-methyl-2-(1-methyl-1H-imidazol-2-yl)-6-(1-methyl-1H-pyrazol-3-yl)pyrrolo[2,1-f][1,2,4]triazin-4-amine]	0 (0 = 0% inhibition)	A (A = 1-25% inhibition)	0 (0 = 0% inhibition)	B (B = 26-49% inhibition)	0	A (1-25% inhibition)
COc1cc(Nc2nc(-c3nccn3C)nn3cc(-c4ccn(C5CC5)n4)c(C)c23)ncn1 [Compound 135, 6-(1-Cyclopropyl-1H-pyrazol-3-yl)-N-(6-methoxypyrimidin-4-yl)-5-methyl-2-(1-methyl-1H-imidazol-2-yl)pyrrolo[2,1-f][1,2,4]triazin-4-amine]	D (D = 76-100% inhibition)	D (D = 76-100% inhibition)	D (D = 76-100% inhibition)	D (D = 76-100% inhibition)	76 to 100	D* (85-100% activation)
COc1ccnc(Nc2nc(-c3nccn3C)nn3cc(-c4ccn(C5CC5)n4)c(C)c23)c1 [Compound 137, 6-(1-Cyclopropyl-1H-pyrazol-3-yl)-N-(4-methoxypyridin-2-yl)-5-methyl-2-(1-methyl-1H-imidazol-2-yl)pyrrolo[2,1-f][1,2,4]triazin-4-amine]	B (B = 26-49% inhibition)	C (C = 50-75% inhibition)	B (B = 26-49% inhibition)	C (C = 50-75% inhibition)	50 to 75	D* (85-100% activation)
Cc1c(-c2ccn(C3CC3)n2)cn2nc(-c3nccn3C)nc(Nc3cc(OC(F)(F)F)ccn3)c12 [Compound 138, 6-(1-Cyclopropyl-1H-pyrazol-3-yl)-5-methyl-2-(1-methyl-1H-imidazol-2-yl)-N-(4-(trifluoromethoxy)pyridin-2-yl)pyrrolo[2,1-f][1,2,4]triazin-4-amine]	D (D = 76-100% inhibition)	D (D = 76-100% inhibition)	D (D = 76-100% inhibition)	C (C = 50-75% inhibition)	50 to 75	D* (85-100% activation)
Cc1c(-c2ccn(C3CC3)n2)cn2nc(-c3nccn3C)nc(Nc3cc(OCC(F)(F)F)ccn3)c12 [Compound 140, 6-(1-Cyclopropyl-1H-pyrazol-3-yl)-5-methyl-2-(1-methyl-1H-imidazol-2-yl)-N-(4-(2,2,2-trifluoroethoxy)pyridin-2-yl)pyrrolo[2,1-f][1,2,4]triazin-4-amine]	D (D = 76-100% inhibition)	C (C = 50-75% inhibition)	C (C = 50-75% inhibition)	C (C = 50-75% inhibition)	76 to 100	D* (85-100% activation)
Cc1c(-c2ccn(C3CC3)n2)cn2nc(-c3nccn3C)nc(Nc3cc(OC4CC4)ccn3)c12 [Compound 142, N-(4-Cyclopropoxypyridin-2-yl)-6-(1-cyclopropyl-1H-pyrazol-3-yl)-5-methyl-2-(1-methyl-1H-imidazol-2-yl)pyrrolo[2,1-f][1,2,4]triazin-4-amine]	D (D = 76-100% inhibition)	D (D = 76-100% inhibition)	D (D = 76-100% inhibition)	D (D = 76-100% inhibition)	76 to 100	A (1-25% inhibition)
Cc1ccnc(Nc2nc(-c3nccn3C)nn3cc(-c4ccn(C5CC5)n4)c(C)c23)c1 [Compound 144, 6-(1-Cyclopropyl-1H-pyrazol-3-yl)-5-methyl-2-(1-methyl-1H-imidazol-2-yl)-N-(4-methylpyridin-2-yl)pyrrolo[2,1-f][1,2,4]triazin-4-amine]	D (D = 76-100% inhibition)	D (D = 76-100% inhibition)	D (D = 76-100% inhibition)	C (C = 50-75% inhibition)	76 to 100	B* (26-49% activation)

Continued, in another order:

KRas G12D mutant + SOS: % inh. [2]	KRas G12D mutant: % inh. [2]	KRas wild type + SOS: % inh. [3]	KRas wild type: % inh. [3]	inhibition at 20 µM [4] [%]	Compound	% inh of Akt phosphorylation in Panc-1 [1]
A (A = 1-25% inhibition)	A (A = 1-25% inhibition)	0 (0 = 0% inhibition)	0 (0 = 0% inhibition)	1 to 25	Cc1c(-c2ccn(C3CC3)n2)cn2nc(-c3nccn3C)nc(O)c12 [Compound 134, 6-(1-Cyclopropyl-1H-pyrazol-3-yl)-5-methyl-2-(1-methyl-1H-imidazol-2-yl)pyrrolo[2,1-f][1,2,4]triazin-4-ol]	A (1-25% inhibition)
D (D = 76-100% inhibition)	D (D = 76-100% inhibition)	D (D = 76-100% inhibition)	C (C = 50-75% inhibition)	76 to 100	Cc1c(-c2ccn(C)n2)cn2nc(-c3nccn3C)nc(Nc3cc(OC(C)C)ccn3)c12 [Compound 136, N-(4-Isopropoxypyridin-2-yl)-5-methyl-2-(1-methyl-1H-imidazol-2-yl)-6-(1-methyl-1H-pyrazol-3-yl)pyrrolo[2,1-f][1,2,4]triazin-4-amine]	D* (85-100% activation)
D (D = 76-100% inhibition)	D (D = 76-100% inhibition)	D (D = 76-100% inhibition)	D (D = 76-100% inhibition)	76 to 100	Cc1c(-c2ccn(C3CC3)n2)cn2nc(-c3nccn3C)nc(Nc3cc(OC(F)F)ccn3)c12 [Compound 139, 6-(1-Cyclopropyl-1H-pyrazol-3-yl)-N-(4-(difluoromethoxy)pyridin-2-yl)-5-methyl-2-(1-methyl-1H-imidazol-2-yl)pyrrolo[2,1-f][1,2,4]triazin-4-amine]	D* (85-100% activation)
D (D = 76-100% inhibition)	D (D = 76-100% inhibition)	B (B = 26-49% inhibition)	C (C = 50-75% inhibition)	76 to 100	CCOc1ccnc(Nc2nc(-c3nccn3C)nn3cc(-c4ccn(C5CC5)n4)c(C)c23)c1 [Compound 141, 6-(1-Cyclopropyl-1H-pyrazol-3-yl)-N-(4-ethoxypyridin-2-yl)-5-methyl-2-(1-methyl-1H-imidazol-2-yl)pyrrolo[2,1-f][1,2,4]triazin-4-amine]	A (1-25% inhibition)
D (D = 76-100% inhibition)	D (D = 76-100% inhibition)	D (D = 76-100% inhibition)	D (D = 76-100% inhibition)	76 to 100	Cc1c(-c2ccn(C3CC3)n2)cn2nc(-c3nccn3C)nc(Nc3ccccn3)c12 [Compound 143, 6-(1-Cyclopropyl-1H-pyrazol-3-yl)-5-methyl-2-(1-methyl-1H-imidazol-2-yl)-N-(pyridin-2-yl)pyrrolo[2,1-f][1,2,4]triazin-4-amine]	D* (85-100% activation)
D (D = 76-100% inhibition)	D (D = 76-100% inhibition)	D (D = 76-100% inhibition)	D (D = 76-100% inhibition)	76 to 100	Cc1c(-c2ccn(C3CC3)n2)cn2nc(-c3nccn3C)nc(Nc3cc(N(C)C)ccn3)c12 [Compound 145, N^2-(6-(1-Cyclopropyl-1H-pyrazol-3-yl)-5-methyl-2-(1-methyl-1H-imidazol-2-yl)pyrrolo[2,1-f][1,2,4]triazin-4-yl)-N^4,N^4-dimethylpyridine-2,4-diamine]	D* (85-100% activation)
D (D = 76-100% inhibition)	D (D = 76-100% inhibition)	D (D = 76-100% inhibition)	D (D = 76-100% inhibition)	76 to 100	Cc1c(-c2ccn(C3CC3)n2)cn2nc(-c3nccn3C)nc(Nc3cc(OCCO)ccn3)c12 [Compound 146, 2-((2-((6-(1-Cyclopropyl-1H-pyrazol-3-yl)-5-methyl-2-(1-methyl-1H-imidazol-2-yl)pyrrolo[2,1-f][1,2,4]triazin-4-yl)amino)pyridin-4-yl)oxy)ethan-1-ol]	D* (85-100% activation)
D (D = 76-100% inhibition)	D (D = 76-100% inhibition)	D (D = 76-100% inhibition)	D (D = 76-100% inhibition)	76 to 100	Cc1c(-c2ccn(C3CC3)n2)cn2nc(-c3nccn3C)nc(Nc3cc(OCCCO)ccn3)c12 [Compound 149, 3-((2-((6-(1-Cyclopropyl-1H-pyrazol-3-yl)-5-methyl-2-(1-methyl-1H-imidazol-2-yl)pyrrolo[2,1-f][1,2,4]triazin-4-yl)amino)pyridin-4-yl)oxy)propan-1-ol]	D* (85-100% activation)
